Source: PMC6946680, “Modulation of brain cation-Cl^− cotransport via the SPAK kinase inhibitor ZT-1a” (Nature Communications, 2020)
Where “and” joins values, the source holds several entries; their conditions need not be identical. Identical values can stand only once.

Tests used:
humans = settings: cited from earlier work
KCC3 pThr991/pThr1048 = experiment: Choroid plexus KCC3 phospho-IP/immunoblot in rat IVH model; type: in vivo
[1] = system: mouse primary cortical neurons; experiment: Cell volume measurement (calcein-AM) under hyperosmotic stress, primary cortical neurons
[2] = system: KCC3 Thr991Ala/Thr1048Ala; experiment: 86Rb+ uptake assay for KCC3 double mutant in HEK-293 cells; type: cell-based, human; settings: for 86Rb+ uptake: Fig 3a, T991A/T1048A + 1a (10 µM), replicates
Experimental: ^86Rb^+ flux assays have been utilized extensively as a reliable measurement of cation chloride cotransporter activity[51]–[54].
Thirty-six hours post transfection, cells were exposed for 30 min to either control isotonic conditions or hypotonic low [Cl^−] conditions (to activate the SPAK/OSR1 pathway), and then treated for an additional 30 min in the same conditions with the indicated ZT-1a concentrations in the presence of 1 mM ouabain and 0.1 mM bumetanide. Ten-minute ^86Rb^+ uptake values were quantified by scintillation counting, normalized per mg protein for each condition, and plotted for both isotonic and hypotonic conditions. ***p < 0.001; **p < 0.01; *p < 0.05; ns—nonsignificant [by one-way ANOVA with post hoc testing (n = 6, error bars represent the mean ± SEM)]. b ^86Rb^+ uptake assays in the presence of ZT-1a measure transport activity of NKCC1. […] Thirty-six hours post transfection, cells were exposed for 30 min to either control isotonic conditions or hypotonic low [Cl^−] conditions (to activate the SPAK/OSR1 pathway), and then treated in the same conditions for an additional 30 min with 10 µM ZT-1a or 0.1 mM bumetanide (Bum) in the presence of 1 mM ouabain (Na^+/K^+-ATPase inhibitor). ^86Rb^+ uptake was allowed to proceed for 10 min and was then quantified by scintillation counting. ^86Rb^+ uptake CPMs were normalized per mg protein and plotted for both isotonic and hypotonic conditions. […] Ten-minute ^86Rb^+ uptake values were quantified by scintillation counting, normalized per mg protein for each condition, and plotted for both isotonic and hypotonic conditions. ***p < 0.001; **p < 0.01; *p < 0.05; ns—nonsignificant [by one-way ANOVA with post hoc testing (n = 6, error bars represent the mean ± SEM)].
This stimulating medium was then removed and replaced with isotonic medium containing inhibitors plus 2 µCi/ml ^86Rb^+. […] Washed cells were lysed in 300 µl of ice-cold lysis buffer and ^86Rb^+ uptake was quantitated by liquid scintillation counting (PerkinElmer).

[3] = rat CPe 48 h post IVH + 1a, replicates

## Cc1cc(C(C#N)c2ccc(Cl)cc2)c(Cl)cc1NC(=O)c1cc(I)cc(I)c1O (stereo not shown) [Closantel, reference compound]
humans
  toxicity contraindicating use in humans: retinal toxicity

## Cc1cc(C(C#N)c2ccc(Cl)cc2)c(Cl)cc1NC(=O)c1cc(Cl)ccc1O (stereo not shown) [ZT-1a, 5-chloro-N-(5-chloro-4-((4-chlorophenyl)(cyano)methyl)-2-methylphenyl)-2-hydroxybenzamide]
KCC3 pThr991/pThr1048; [3]
  KCC3 pThr991 / Actin: 0.089 and 0.127 and 0.217 and 0.096 and 0.114 and 0.223
  KCC3 pThr1048 / Actin: 0.504 and 0.573 and 0.821 and 0.586 and 0.633 and 0.872
KCC3 pThr991/pThr1048; rat CPe, ICV ZT-1a
  reduction of post-IVH KCC3 phosphorylation at Thr991: 6 fold
  reduction of post-IVH KCC3 phosphorylation at Thr1048: 2.1 fold
[1]; Fig 5b trace, Time 1.00403
  Cell water (relative change): 1.0915 relative change
[1]; Fig 5b trace, Time 2.00427
  Cell water (relative change): 1.001 relative change
[1]; Fig 5b trace, Time 3.00425
  Cell water (relative change): 0.9646 relative change
[1]; Fig 5b trace, Time 4.00423
  Cell water (relative change): 0.9689 relative change
[1]; Fig 5b trace, Time 5.0042
  Cell water (relative change): 0.9837 relative change
[1]; Fig 5b trace, Time 6.00445
  Cell water (relative change): 0.7025 relative change
[1]; Fig 5b trace, Time 7.00442
  Cell water (relative change): 0.636 relative change
[1]; Fig 5b trace, Time 8.00435
  Cell water (relative change): 0.6336 relative change
[1]; Fig 5b trace, Time 9.00452
  Cell water (relative change): 0.5971 relative change
[1]; Fig 5b trace, Time 10.0046
  Cell water (relative change): 0.5748 relative change
[1]; Fig 5b trace, Time 11.0045
  Cell water (relative change): 0.5229 relative change
[1]; Fig 5b trace, Time 12.0045
  Cell water (relative change): 0.4882 relative change
[1]; Fig 5b trace, Time 13.0045
  Cell water (relative change): 0.4496 relative change
[1]; Fig 5b trace, Time 14.0045
  Cell water (relative change): 0.4313 relative change
[1]; Fig 5b trace, Time 15.0047
  Cell water (relative change): 0.4596 relative change
[1]; Fig 5b trace, Time 16.0047
  Cell water (relative change): 0.433 relative change
[1]; Fig 5b trace, Time 17.0047
  Cell water (relative change): 0.4137 relative change
[1]; Fig 5b trace, Time 18.0047
  Cell water (relative change): 0.4143 relative change
[1]; Fig 5b trace, Time 19.0049
  Cell water (relative change): 0.386 relative change
[1]; Fig 5b trace, Time 20.0049
  Cell water (relative change): 0.3846 relative change
[1]; Fig 5b trace, Time 21.0048
  Cell water (relative change): 0.3598 relative change
[1]; Fig 5b trace, Time 22.0048
  Cell water (relative change): 0.3067 relative change
[1]; Fig 5b trace, Time 23.005
  Cell water (relative change): 0.3082 relative change
[1]; Fig 5b trace, Time 24.0048
  Cell water (relative change): 0.3082 relative change
[1]; Fig 5b trace, Time 25.005
  Cell water (relative change): 0.2995 relative change
[1]; Fig 5b trace, Time 26.0053
  Cell water (relative change): 0.543 relative change
[1]; Fig 5b trace, Time 27.005
  Cell water (relative change): 0.6295 relative change
[1]; Fig 5b trace, Time 28.005
  Cell water (relative change): 0.7317 relative change
[1]; Fig 5b trace, Time 29.0051
  Cell water (relative change): 0.8403 relative change
[1]; Fig 5b trace, Time 30.005
  Cell water (relative change): 0.9491 relative change
[1]; Fig 5b trace, Time 31.005
  Cell water (relative change): 1.001 relative change
[1]; Fig 5b trace, Time 32.005
  Cell water (relative change): 1.095 relative change
[1]; Fig 5b trace, Time 33.0052
  Cell water (relative change): 1.18 relative change
[1]; Fig 5b trace, Time 34.0052
  Cell water (relative change): 1.2174 relative change
[1]; Fig 5b trace, Time 35.0052
  Cell water (relative change): 1.246 relative change
[1]; Time 1.0036
  Cell water (relative change): 0.9411
[1]; Time 2.0038
  Cell water (relative change): 0.9678
[1]; Time 3.0038
  Cell water (relative change): 0.9873
[1]; Time 4.0037
  Cell water (relative change): 1.0365
[1]; Time 5.0037
  Cell water (relative change): 1.0673
[1]; Time 6.0037
  Cell water (relative change): 0.3755
[1]; Time 7.0039
  Cell water (relative change): 0.3590
[1]; Time 8.0040
  Cell water (relative change): 0.3612
[1]; Time 9.0042
  Cell water (relative change): 0.3419
[1]; Time 10.0039
  Cell water (relative change): 0.3164
[1]; Time 11.0039
  Cell water (relative change): 0.3660
[1]; Time 12.0039
  Cell water (relative change): 0.3218
[1]; Time 13.0041
  Cell water (relative change): 0.3220
[1]; Time 14.0041
  Cell water (relative change): 0.3646
[1]; Time 15.0040
  Cell water (relative change): 0.4243
[1]; Time 16.0040
  Cell water (relative change): 0.3424
[1]; Time 17.0040
  Cell water (relative change): 0.4003
[1]; Time 18.0045
  Cell water (relative change): 0.3516
[1]; Time 19.0042
  Cell water (relative change): 0.3431
[1]; Time 20.0042
  Cell water (relative change): 0.3283
[1]; Time 21.0042
  Cell water (relative change): 0.3207
[1]; Time 22.0041
  Cell water (relative change): 0.3314
[1]; Time 23.0044
  Cell water (relative change): 0.2994
[1]; Time 24.0044
  Cell water (relative change): 0.3371
[1]; Time 25.0043
  Cell water (relative change): 0.3486
[1]; Time 26.0043
  Cell water (relative change): 0.4588
[1]; Time 27.0043
  Cell water (relative change): 0.5973
[1]; Time 28.0045
  Cell water (relative change): 0.7262
[1]; Time 29.0044
  Cell water (relative change): 0.8045
[1]; Time 30.0044
  Cell water (relative change): 0.9325
[1]; Time 31.0046
  Cell water (relative change): 1.0105
[1]; Time 32.0046
  Cell water (relative change): 1.1112
[1]; Time 33.0046
  Cell water (relative change): 1.1274
[1]; Time 34.0045
  Cell water (relative change): 1.2089
[1]; Time 35.0045
  Cell water (relative change): 1.2137
[1]; hyperosmotic stress 370 mOsm, ZT-1a 3 μM, BMT 10 μM
  regulatory volume increase (RVI) response of primary cortical neurons: no RVI response
[1]; hypertonic 370 mOsm/kg H2O, earlier manuscript version quoted in peer-review file
  cell shrinkage of primary cortical neurons: 87%
[1]; hypertonic stress, earlier manuscript version quoted in peer-review file
  initial rate of cell shrinkage: 29 ± 9 % vol/min
[1]; hypertonicity-mediated osmotic shrinkage, three cultures
  neurons exhibiting RVI / cells analysed: 0/49
[2]; 86Rb+ flux, 10 µM ZT-1a
  activity of KCC3 double mutant Thr991Ala/Thr1048Ala: failed to increase activity
[2]; Hypotonic low Cl-
  86Rb+ uptake: 20886.3 and 22005.7 and 21031.7 and 19121.7 and 18316.2 and 19001.7
[2]; Isotonic control
  86Rb+ uptake: 27112.3 and 26091.1 and 31837.7 and 30881.4 and 28673.6 and 29768.2
